Tests used:
Type in all cases: in vivo
[1] = tested on: barnyardgrass (Echinochloa crus-galli); experiment: Test A postemergence, barnyardgrass; settings: approximately 10 d
Text: (§1) Seeds of plant species selected from barnyardgrass (Echinochloa crus-galli), kochia (Kochia scoparia), ragweed (common ragweed, Ambrosia elatior), ryegrass, Italian (Italian ryegrass, Lolium multiflorum), foxtail, green (green foxtail, Setaria viridis), and pigweed (Amaranthus retroflexus) were planted into a blend of loam soil and sand and treated preemergence with a directed soil spray using test chemicals formulated in a non-phytotoxic solvent mixture which included a surfactant. At the same time, plants selected from these weed species and also wheat (Triticum aestivum), corn (Zea mays), blackgrass (Alopecurus myosuroides), and galium (catchweed bedstraw, Galium aparine) were planted in pots containing the same blend of loam soil and sand and treated with postemergence applications of test chemicals formulated in the same manner. Plants ranged in height from 2 to 10 cm and were in the one- to two-leaf stage for the postemergence treatment. Treated plants and untreated controls were maintained in a greenhouse for approximately 10 d, after which time all treated plants were compared to untreated controls and visually evaluated for injury. Plant response ratings, summarized in Table A, are based on a 0 to 100 scale where 0 is no effect and 100 is complete control. A dash (-) response means no test result.

[2] = tested on: blackgrass (Alopecurus myosuroides); experiment: Test A postemergence, blackgrass; settings: approximately 10 d
Text: as §1

corn (Zea mays) = experiment: Test A postemergence, corn; settings: approximately 10 d
Text: as §1

Foxtail, Giant [3] = experiment: Test A postemergence, giant foxtail; settings: approximately 10 d
[4] = tested on: galium (catchweed bedstraw, Galium aparine); experiment: Test A postemergence, galium; settings: approximately 10 d
Text: as §1

kochia (Kochia scoparia) [5] = experiment: Test A postemergence, kochia; settings: approximately 10 d
Text: as §1

[6] = tested on: pigweed (Amaranthus retroflexus); experiment: Test A postemergence, pigweed; settings: approximately 10 d
Text: as §1

[7] = tested on: ragweed (common ragweed, Ambrosia elatior); experiment: Test A postemergence, ragweed; settings: approximately 10 d
Text: as §1

[8] = tested on: ryegrass, Italian (Italian ryegrass, Lolium multiflorum); experiment: Test A postemergence, Italian ryegrass; settings: approximately 10 d
Text: as §1

[9] = tested on: wheat (Triticum aestivum); experiment: Test A postemergence, wheat; settings: approximately 10 d
Text: as §1

[10] = tested on: barnyardgrass (Echinochloa crus-galli); experiment: Test A preemergence, barnyardgrass; settings: approximately 10 d
Text: as §1

Foxtail, Giant [11] = experiment: Test A preemergence, giant foxtail; settings: approximately 10 d
kochia (Kochia scoparia) [12] = experiment: Test A preemergence, kochia; settings: approximately 10 d
Text: as §1

[13] = tested on: pigweed (Amaranthus retroflexus); experiment: Test A preemergence, pigweed; settings: approximately 10 d
Text: as §1

[14] = tested on: ragweed (common ragweed, Ambrosia elatior); experiment: Test A preemergence, ragweed; settings: approximately 10 d
Text: as §1

[15] = tested on: ryegrass, Italian (Italian ryegrass, Lolium multiflorum); experiment: Test A preemergence, Italian ryegrass; settings: approximately 10 d
Text: as §1

[16] = tested on: barnyardgrass (Echinochloa crus-galli); experiment: Test B flooded paddy test, barnyardgrass; settings: 250 g ai/ha, Flood (paddy water), 13 to 15 d
Procedure: (§2) Plant species in the flooded paddy test selected from rice (Oryza sativa), sedge, umbrella (small-flower umbrella sedge, Cyperus difformis), ducksalad (Heteranthera limosa), and barnyardgrass (Echinochloa crus-galli) were grown to the 2-leaf stage for testing. At time of treatment, test pots were flooded to 3 cm above the soil surface, treated by application of test compounds directly to the paddy water, and then maintained at that water depth for the duration of the test. Treated plants and controls were maintained in a greenhouse for 13 to 15 d, after which time all species were compared to controls and visually evaluated. Plant response ratings, summarized in Table B, are based on a scale of 0 to 100 where 0 is no effect and 100 is complete control. A dash (-) response means no test result.

[17] = tested on: ducksalad (Heteranthera limosa); experiment: Test B flooded paddy test, ducksalad; settings: 250 g ai/ha, Flood (paddy water), 13 to 15 d
Procedure: as §2

rice (Oryza sativa) = experiment: Test B flooded paddy test, rice; settings: 250 g ai/ha, Flood (paddy water), 13 to 15 d
Procedure: as §2

[18] = tested on: sedge, umbrella (small-flower umbrella sedge, Cyperus difformis); experiment: Test B flooded paddy test, umbrella sedge; settings: 250 g ai/ha, Flood (paddy water), 13 to 15 d
Procedure: as §2

## CNN=C1[C@H](C(=O)Nc2cccc(F)c2F)[C@@H](c2ccc(C(F)(F)F)cc2)CN1C (relative stereo) [Compound 3]
[1]; 31 g ai/ha
  Plant response rating (0 to 100 scale, 0 is no effect, 100 is complete control): 60
[1]; 125 g ai/ha
  Plant response rating (0 to 100 scale, 0 is no effect, 100 is complete control): 70
[2]; 31 g ai/ha
  Plant response rating (0 to 100 scale, 0 is no effect, 100 is complete control): 40
[2]; 125 g ai/ha
  Plant response rating (0 to 100 scale, 0 is no effect, 100 is complete control): 80
Corn (Zea mays); 31 g ai/ha
  Plant response rating (0 to 100 scale, 0 is no effect, 100 is complete control): 20
Corn (Zea mays); 125 g ai/ha
  Plant response rating (0 to 100 scale, 0 is no effect, 100 is complete control): 30
Foxtail, Giant [3]; 31 g ai/ha
  Plant response rating (0 to 100 scale, 0 is no effect, 100 is complete control): 40
Foxtail, Giant [3]; 125 g ai/ha
  Plant response rating (0 to 100 scale, 0 is no effect, 100 is complete control): 70
[4]; 31 g ai/ha
  Plant response rating (0 to 100 scale, 0 is no effect, 100 is complete control): 60
[4]; 125 g ai/ha
  Plant response rating (0 to 100 scale, 0 is no effect, 100 is complete control): 80
Kochia (Kochia scoparia) [5]; 31 g ai/ha
  Plant response rating (0 to 100 scale, 0 is no effect, 100 is complete control): 20
Kochia (Kochia scoparia) [5]; 125 g ai/ha
  Plant response rating (0 to 100 scale, 0 is no effect, 100 is complete control): 60
[6]; 31 g ai/ha
  Plant response rating (0 to 100 scale, 0 is no effect, 100 is complete control): 0
[6]; 125 g ai/ha
  Plant response rating (0 to 100 scale, 0 is no effect, 100 is complete control): 90
[7]; 31 g ai/ha
  Plant response rating (0 to 100 scale, 0 is no effect, 100 is complete control): 0
[7]; 125 g ai/ha
  Plant response rating (0 to 100 scale, 0 is no effect, 100 is complete control): 50
[8]; 31 g ai/ha
  Plant response rating (0 to 100 scale, 0 is no effect, 100 is complete control): 0
[8]; 125 g ai/ha
  Plant response rating (0 to 100 scale, 0 is no effect, 100 is complete control): 40
[9]; 31 g ai/ha
  Plant response rating (0 to 100 scale, 0 is no effect, 100 is complete control): 0
[9]; 125 g ai/ha
  Plant response rating (0 to 100 scale, 0 is no effect, 100 is complete control): 30
[10]; 31 g ai/ha
  Plant response rating (0 to 100 scale, 0 is no effect, 100 is complete control): 30
[10]; 125 g ai/ha
  Plant response rating (0 to 100 scale, 0 is no effect, 100 is complete control): 90
Foxtail, Giant [11]; 31 g ai/ha
  Plant response rating (0 to 100 scale, 0 is no effect, 100 is complete control): 70
Foxtail, Giant [11]; 125 g ai/ha
  Plant response rating (0 to 100 scale, 0 is no effect, 100 is complete control): 90
Kochia (Kochia scoparia) [12]; 31 g ai/ha
  Plant response rating (0 to 100 scale, 0 is no effect, 100 is complete control): 0
Kochia (Kochia scoparia) [12]; 125 g ai/ha
  Plant response rating (0 to 100 scale, 0 is no effect, 100 is complete control): 30
[13]; 31 g ai/ha
  Plant response rating (0 to 100 scale, 0 is no effect, 100 is complete control): 0
[13]; 125 g ai/ha
  Plant response rating (0 to 100 scale, 0 is no effect, 100 is complete control): 70
[14]; 31 g ai/ha
  Plant response rating (0 to 100 scale, 0 is no effect, 100 is complete control): 0
[14]; 125 g ai/ha
  Plant response rating (0 to 100 scale, 0 is no effect, 100 is complete control): 0
[15]; 31 g ai/ha
  Plant response rating (0 to 100 scale, 0 is no effect, 100 is complete control): 0
[15]; 125 g ai/ha
  Plant response rating (0 to 100 scale, 0 is no effect, 100 is complete control): 90
[16]
  Plant response rating (scale of 0 to 100, 0 is no effect, 100 is complete control): 70
[17]
  Plant response rating (scale of 0 to 100, 0 is no effect, 100 is complete control): 100
Rice (Oryza sativa)
  Plant response rating (scale of 0 to 100, 0 is no effect, 100 is complete control): 0
[18]
  Plant response rating (scale of 0 to 100, 0 is no effect, 100 is complete control): 0
